We go through 65 compounds from PubChem BioAssay AID1419 (Emory University Molecular Libraries Screening Center, 2008).

The structures appear in SMILES notation. Calls of active or inactive are those of the source. The rule behind the calls is not given here.

The assay is described as follows: EBV protein-peptide binding inhibitors, dose response, biochemical, fluorescence polarization (AID 1419). The settings on record: cell-free protein-peptide binding, 2 h; for fold change: measured here: P channel fold over control, at 54 µM. In general terms: In fluorescence polarisation assays a small probe gives low polarisation when free and higher when bound to something large.

A word on the IC50: it is the midpoint of a concentration-inhibition curve. With `N#C/C(=C(/O)c1ccc(-c2cccc([N+](=O)[O-])c2)o1)c1nc2ccccc2s1`, the IC50 was 7.24 µM and the fold change came to 1.09.

Take `CCOC(=O)C1CCCN(c2nc3ccccc3nc2C(C#N)C(=O)NCc2ccccc2)C1` (stereo not given): the IC50 was 8.82 µM and the fold change came out at 2.73.

Regarding `Cc1cc(S(=O)(=O)Nc2nc(CN3CCOCC3)nc3sc4c(c23)CCCC4)ccc1F`, the IC50 was > 54 µM (inactive) and the fold change is 1.04.

Consider `Cc1cc(/C=C2\SC(=S)N(Cc3ccco3)C2=O)c(C)n1-c1cccnc1`, for which the IC50 is 8.64 µM and the fold change was 18.3.

In the case of `Cc1ccc(NC(=O)CN2C(=O)N/C(=C/c3cccn3-c3ccc(C(=O)O)cc3)C2=O)cc1`, the IC50 is > 54 µM (inactive) and the fold change is 1.2.

As for `COCCOC(=O)c1sc(=S)n(CCOC)c1N`, the IC50 is 3.85 µM and the fold change was 2.45.

`CCOCCCNc1nc2c(C)cccn2c(=O)c1/C=C1\SC(=S)N(C(C)CC)C1=O` (stereo not given): the IC50 is 13.2 µM and the fold change stood at 6.84.

In the case of `N#CC(C#N)=Cc1ccc(-c2ccccc2F)o1`, the IC50 is 5.06 µM and the fold change was 18.8.

Regarding `COc1ccc(N=Nc2nc3ccc(Br)cc3n2C)cc1`, the IC50 was > 54 µM (inactive) and the fold change is 1.28.

Consider `CC[C@@H](CO)NC(=O)[C@@H]1C=C2c3cccc4c3c(cn4C)C[C@H]2N(C)C1`, for which the IC50 was > 54 µM (inactive) and the fold change was 1.44.

In the case of `O=C1N=c2ccccc2=C1c1sc(Nc2ccc(O)cc2)nc1O`, the IC50 is 1.88 µM and the fold change came to 0.2.

With `CC1CCCCC1NC(=O)CN1C(=O)c2cccc(N)c2C1=O` (stereo not given), the IC50 was 2.35 µM and the fold change was 2.47.

As to `N#Cc1cc(C(=O)c2ccccc2O)cn(-c2nccs2)c1=O`, the half-inhibitory concentration (IC50) was 5.3 µM and the fold change was 14.2.

For `CCC1=NN2C(=N)/C(=C\c3ccc(OCc4cc(=O)n5nc(CC)sc5n4)c(OC)c3)C(=O)N=C2S1`, the IC50 is > 54 µM (inactive) and the fold change is 1.08.

As to `COc1ccc(C2C=C(c3ccc(Br)s3)Nc3ncnn32)cc1OC` (stereo not given), the concentration for half-maximal inhibition (IC50) was < 0.42 µM and the fold change was 24.3.

For the compound `COc1ccccc1NC(=O)/C(C#N)=C/c1cc([N+](=O)[O-])ccc1N1CCCC1`, the IC50 was 4.7 µM and the fold change was 60.1.

In the case of `O=C1c2ccccc2-c2ncnc3c(N4CCOCC4)cc(N4CCOCC4)c1c23`, the IC50 was > 54 µM (inactive) and the fold change was determined as 1.1.

In the case of `CCCCn1nc(-c2ccccc2)c2nc3ccccc3nc21`, the IC50 is 3.13 µM and the fold change turned out to be 22.6.

In the case of `Cc1ccc(C)c(-n2c3nc(=O)[nH]c(=O)c-3cc3cc([N+](=O)[O-])ccc32)c1`, the IC50 was 8.3 µM and the fold change is 2.52.

Turning to `COc1ccc(-n2c(C)cc(/C=C3\SC(=S)N(Cc4ccco4)C3=O)c2C)cc1`, the IC50 is 7.24 µM and the fold change came to 5.18.

`CCOCCCn1c(=NC(=O)c2cccs2)c(C#N)cc2c(=O)n3cccc(C)c3nc21`: the IC50 is 7.53 µM and the fold change came to 4.61.

For the compound `COC(=O)[C@@]1(C#N)[C@@H]2C=CC(C(C)=O)=CN2[C@@H](C(N)=O)[C@@H]1c1ccc(F)cc1`, the IC50 was 1.05 µM and the fold change came to 10.2.

Consider `Brc1ccc(C2=CC(c3ccco3)n3ncnc3N2)cc1` (stereo not given), for which the IC50 was 1.09 µM and the fold change is 6.05.

Turning to `Cc1ccc[n+](-c2nc([O-])sc2C=O)c1`, the IC50 was 0.65 µM and the fold change is 44.1.

For `COc1ccc(/C=C2\SC(=O)N(CC(=O)NNC(=O)c3ccccc3O)C2=O)cc1`, the IC50 is > 54 µM (inactive) and the fold change is 1.01.

Take `CCN(CC)C(=O)CSc1nnc2nnc3cc(Cl)ccc3n12`: the IC50 is 4.38 µM and the fold change came out at 3.1.

Turning to `Cc1ccc(NC(=O)CN2C(=O)/C(=C3\SC(=S)N(C4CCS(=O)(=O)C4)C3=O)c3ccccc32)cc1` (stereo not given), the IC50 is 20.4 µM and the fold change came to 0.67.

On to `Cc1ccc(OCCn2c(C3CC(=O)N(Cc4ccccc4)C3)nc3ccccc32)cc1` (stereo not given), for which the IC50 is > 54 µM (inactive) and the fold change worked out at 1.15.

For `O=[N+]([O-])c1ccccc1/C=C/C=N/n1c(-c2ccc(Cl)cc2)n[nH]c1=S`, the IC50 was > 54 µM (inactive) and the fold change came out at 0.947.

For the compound `CCOC(=O)c1c(/N=C/c2c(O)n(-c3ccc(F)cc3)c(=S)[nH]c2=O)sc2c1CCCC2`, the IC50 was 22.8 µM and the fold change is 3.7.

On to `O=C(NCCCO)Nc1ccc2nc(-c3ccco3)c(-c3ccco3)nc2c1`, for which the IC50 is 4.06 µM and the fold change was determined as 5.99.

For `Cc1cc(C=C2C(=O)c3ccccc3C2=O)c(C)n1-c1ccc(Cl)cc1`, the IC50 was 8.5 µM and the fold change is 6.3.

Consider `CCCCN1C(=O)C2Cc3c([nH]c4ccccc34)CN2C1=S` (stereo not given), for which the IC50 was 2.73 µM and the fold change came to 5.04.

Consider `Cc1ccc([N+](=O)[O-])cc1N=Nc1c(-c2ccc([N+](=O)[O-])cc2)[nH]n(C(N)=S)c1=O`, for which the IC50 was 1.83 µM and the fold change was 1.04.

Turning to `COc1ccc(-c2c(C#N)c(N)nc3sc(C(=O)c4ccccc4)c(N)c23)cc1`, the IC50 was 6.7 µM and the fold change was 7.69.

On to `CN1C[C@H](CO)C=C2c3cccc4[nH]cc(c34)C[C@H]21`, for which the 50% inhibitory concentration (IC50) is 12.4 µM and the fold change was determined as 1.62.

Take `O=[N+]([O-])c1ccc2[nH]c(O)c(N=NC(=S)Nc3cccnc3)c2c1`: the IC50 is > 54 µM (inactive) and the fold change was found to be 0.61.

On to `C=CCn1c(CSc2nc3ccccc3s2)nnc1SCC(=O)NCc1ccco1`, for which the IC50 was > 54 µM (inactive) and the fold change was 0.923.

Take `O=C(O)COn1c(-c2ccccc2)nc2ccc([N+](=O)[O-])cc21`: the IC50 was > 54 µM (inactive) and the fold change was 1.17.

In the case of `Nc1c(NCCC2=CCCCC2)c(=O)[nH]c(=O)n1Cc1ccccc1`, the IC50 was > 54 µM (inactive) and the fold change amounted to 1.7.

In the case of `CCSc1nnc(NC(=O)C(C(F)(F)F)C(F)(F)F)s1`, the IC50 is > 54 µM (inactive) and the fold change stood at 0.583.

As for `O=Cc1ccc2noc(-c3ccc(F)cc3)c2c1`, the IC50 was 1.47 µM and the fold change is 5.46.

For `COc1ccc2nc(C)cc(N3CCOCC3)c2c1`, the IC50 is > 54 µM (inactive) and the fold change worked out at 1.04.

As to `O=C(NNC(=O)c1sccc1-n1cccc1)c1cccc(Cl)c1`, the IC50 is > 54 µM (inactive) and the fold change was found to be 0.963.

Turning to `CCN(CC)C(=O)CSc1nnc2nnc3cc(OC)ccc3n12`, the half-inhibitory concentration (IC50) is < 0.42 µM and the fold change was determined as 7.06.

Turning to `N#C/C(=C\c1sc(N2CCOCC2)nc1-c1ccccc1)C(=O)Nc1cccc2ccccc12`, the IC50 was 30.8 µM (inactive) and the fold change amounted to 3.26.

On to `Cc1cccc(N2C(=O)NC(=O)/C(=C/c3cc4c(cc3[N+](=O)[O-])OCO4)C2=O)c1`, for which the IC50 is 2.62 µM and the fold change was 3.71.

With `O=Cc1cnc(N2CCCCC2)s1`, the IC50 was > 54 µM (inactive) and the fold change amounted to 1.06.

In the case of `CC1CCCN(c2nc3ccccc3nc2C(C#N)S(=O)(=O)c2ccccc2)C1` (stereo not given), the IC50 was > 54 µM (inactive) and the fold change worked out at 1.37.

Consider `CN(C)c1ccc(/C=C2\SC(=O)N(CC(O)Cn3c4ccccc4c4ccccc43)C2=O)cc1` (stereo not given), for which the IC50 is 2.46 µM and the fold change was determined as 10.3.

On to `CN1/C(=C\C=C\C2=[N+](C)c3ccc4ccccc4c3C2(C)C)C(C)(C)c2ccccc21`, for which the IC50 was 3.78 µM and the fold change stood at 4.43.

For the compound `CCOc1ccc(NC(=O)c2cc3c(C)nc4ccccc4c3o2)cc1`, the IC50 is > 54 µM (inactive) and the fold change worked out at 0.947.

With `CC(C)CSC1=NSC2=NC(=O)/C(=C\c3coc4ccccc4c3=O)C(=N)N12`, the IC50 is > 54 µM (inactive) and the fold change was found to be 33.

For the compound `CNc1cccc2c1C(=O)c1ccccc1C2=O`, the concentration for half-maximal inhibition (IC50) is 2.8 µM and the fold change was found to be 2.44.

As for `Cc1c(N=C2N=C(NC(=O)c3ccc(F)cc3)c3ccccc32)c(=O)n(-c2ccccc2)n1C`, the IC50 is 6.56 µM and the fold change was 6.09.

Regarding `CC(=O)c1ccc2noc(-c3ccc(F)cc3)c2c1`, the IC50 was 3.34 µM and the fold change stood at 4.39.

Consider `S=C(Nc1ccc2nc(-c3ccccn3)c(-c3ccccn3)nc2c1)N1CCCCC1`, for which the IC50 is > 54 µM (inactive) and the fold change is 1.3.

With `Cn1c(=O)c2[nH]c(-c3ccccc3)c(O)c2n(C)c1=O`, the IC50 was < 0.42 µM and the fold change came out at 6.43.

For the compound `Nc1c(S(=O)(=O)c2ccccc2)c2nc3ccccc3nc2n1Cc1ccco1`, the IC50 is > 54 µM (inactive) and the fold change was determined as 1.32.

For `CCOc1cccc(C2C(C(=O)c3ccc(C)o3)=C(O)C(=O)N2c2nccs2)c1` (stereo not given), the IC50 was < 0.42 µM and the fold change came out at 8.6.

Consider `CCn1c(C)cc(C=C2C(=O)c3ccccc3C2=O)c1C`, for which the IC50 was 16.2 µM and the fold change is 8.23.

As to `Cc1cccc(C)c1NC(=O)COC(=O)c1c2c(nc3ccccc13)/C(=C\c1ccc3c(c1)OCO3)CCC2`, the IC50 was > 54 µM (inactive) and the fold change was determined as 1.32.

Take `Cc1ccc(N2C(=O)c3cccc4c(N5CCN(C)CC5)ccc(c34)C2=O)c2cccnc12`: the IC50 was < 0.42 µM and the fold change is 31.9.

For the compound `COc1cc(/C=C2/C(=O)c3cccc([N+](=O)[O-])c3C2=O)c(Br)cc1O`, the IC50 was > 54 µM (inactive) and the fold change turned out to be 0.647.

Turning to `CCN1CCN(CC(=O)N2N=C(c3cccs3)CC2c2ccc(OC)c(OC)c2)C(=O)C1=O` (stereo not given), the IC50 was > 54 µM (inactive) and the fold change is 1.25.
